Reference: PMC11678797, “A Repurposed Drug Selection Pipeline to Identify CNS-Penetrant Drug Candidates for Glioblastoma” (Pharmaceuticals, 2024)

How the values were obtained:
murine P-gp (Abcb1a) = target: T1, murine P-gp (Abcb1a) (Mus musculus, UniProt P21447); experiment: Concentration equilibrium transport assay (CETA), LLC-PK1 cells transduced with murine Abcb1a; format: in vitro ADME; conditions: omacetaxine 100 nM, up to 4 h
T1 construct: expressed in transfected cells; host or cells: LLC-PK1 (pig kidney) cells transduced with murine Abcb1a (LLC-Mdr1a)
Experimental: (§1) In vitro transport studies were performed using the LLC pig kidney cell line (LLC-PK1) and sub-lines transduced with murine Abcb1a (LLC-Mdr1a) or human ABCB1 (LLC-MDR1). Similarly, in vitro transport studies were conducted in the parental Madin–Darby canine kidney (MDCK) type II cell line (MDCK-Parent) and murine Abcg2 (MDCK-Bcrp1) or human ABCG2 (MDCK-BCRP) transduced sublines. Concentration equilibrium transport assays (CETA) were performed as previously described. Briefly, cells were grown on polycarbonate membrane filters (3.0 µm pores, 24 mm diameter; Costar Corning, NY, USA) for 4 days. Next, 2 mL of MEM medium containing 10% FCS and omacetaxine (100 nM) was added to both the apical and basal compartments. Then, [14C]-inulin ([…]) was added basolateral to check the membrane integrity. Zosuquidar 1 μM was added to all wells containing MDCK cells to inhibit endogenous (canine) ABCB1. […] The integrity of the membrane was checked by taking 20 μL samples from both apical and basolateral sides for radioactivity counting. […] OMA concentrations were measured using an LC-MS/MS system that consisted of an UltiMate 3000 LC System (Dionex, Sunnyvale, CA, USA) and an API 4000 mass spectrometer (Sciex, Framingham, MA, USA).

human BCRP (ABCG2) = target: T2, human BCRP (ABCG2) (Homo sapiens, UniProt Q9UNQ0); experiment: Concentration equilibrium transport assay (CETA), MDCK cells transduced with human ABCG2, with zosuquidar; format: in vitro ADME; conditions: omacetaxine 100 nM, zosuquidar 1 μM, up to 4 h
T2 construct: expressed in transfected cells; host or cells: MDCK type II (canine kidney) cells transduced with human ABCG2 (MDCK-BCRP)
T2 sequence (Q9UNQ0 1-655): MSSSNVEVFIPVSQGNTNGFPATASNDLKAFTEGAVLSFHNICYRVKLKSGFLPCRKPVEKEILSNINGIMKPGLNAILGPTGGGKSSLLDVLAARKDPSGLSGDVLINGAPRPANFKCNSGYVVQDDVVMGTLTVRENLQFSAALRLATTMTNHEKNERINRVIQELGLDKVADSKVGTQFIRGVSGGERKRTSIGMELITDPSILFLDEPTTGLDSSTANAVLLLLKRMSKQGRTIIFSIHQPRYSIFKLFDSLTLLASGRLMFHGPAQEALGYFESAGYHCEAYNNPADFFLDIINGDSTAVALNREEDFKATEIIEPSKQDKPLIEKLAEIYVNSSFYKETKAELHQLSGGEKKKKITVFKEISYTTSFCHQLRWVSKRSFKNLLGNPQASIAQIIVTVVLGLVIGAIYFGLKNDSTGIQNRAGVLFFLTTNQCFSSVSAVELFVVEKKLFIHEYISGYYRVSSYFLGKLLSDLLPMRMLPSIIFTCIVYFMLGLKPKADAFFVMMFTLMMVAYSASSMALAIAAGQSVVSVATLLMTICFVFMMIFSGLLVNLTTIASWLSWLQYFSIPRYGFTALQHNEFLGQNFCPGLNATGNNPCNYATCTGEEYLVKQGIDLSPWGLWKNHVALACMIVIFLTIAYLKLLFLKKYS
Experimental: as §1

T1 sequence (P21447 whole entry): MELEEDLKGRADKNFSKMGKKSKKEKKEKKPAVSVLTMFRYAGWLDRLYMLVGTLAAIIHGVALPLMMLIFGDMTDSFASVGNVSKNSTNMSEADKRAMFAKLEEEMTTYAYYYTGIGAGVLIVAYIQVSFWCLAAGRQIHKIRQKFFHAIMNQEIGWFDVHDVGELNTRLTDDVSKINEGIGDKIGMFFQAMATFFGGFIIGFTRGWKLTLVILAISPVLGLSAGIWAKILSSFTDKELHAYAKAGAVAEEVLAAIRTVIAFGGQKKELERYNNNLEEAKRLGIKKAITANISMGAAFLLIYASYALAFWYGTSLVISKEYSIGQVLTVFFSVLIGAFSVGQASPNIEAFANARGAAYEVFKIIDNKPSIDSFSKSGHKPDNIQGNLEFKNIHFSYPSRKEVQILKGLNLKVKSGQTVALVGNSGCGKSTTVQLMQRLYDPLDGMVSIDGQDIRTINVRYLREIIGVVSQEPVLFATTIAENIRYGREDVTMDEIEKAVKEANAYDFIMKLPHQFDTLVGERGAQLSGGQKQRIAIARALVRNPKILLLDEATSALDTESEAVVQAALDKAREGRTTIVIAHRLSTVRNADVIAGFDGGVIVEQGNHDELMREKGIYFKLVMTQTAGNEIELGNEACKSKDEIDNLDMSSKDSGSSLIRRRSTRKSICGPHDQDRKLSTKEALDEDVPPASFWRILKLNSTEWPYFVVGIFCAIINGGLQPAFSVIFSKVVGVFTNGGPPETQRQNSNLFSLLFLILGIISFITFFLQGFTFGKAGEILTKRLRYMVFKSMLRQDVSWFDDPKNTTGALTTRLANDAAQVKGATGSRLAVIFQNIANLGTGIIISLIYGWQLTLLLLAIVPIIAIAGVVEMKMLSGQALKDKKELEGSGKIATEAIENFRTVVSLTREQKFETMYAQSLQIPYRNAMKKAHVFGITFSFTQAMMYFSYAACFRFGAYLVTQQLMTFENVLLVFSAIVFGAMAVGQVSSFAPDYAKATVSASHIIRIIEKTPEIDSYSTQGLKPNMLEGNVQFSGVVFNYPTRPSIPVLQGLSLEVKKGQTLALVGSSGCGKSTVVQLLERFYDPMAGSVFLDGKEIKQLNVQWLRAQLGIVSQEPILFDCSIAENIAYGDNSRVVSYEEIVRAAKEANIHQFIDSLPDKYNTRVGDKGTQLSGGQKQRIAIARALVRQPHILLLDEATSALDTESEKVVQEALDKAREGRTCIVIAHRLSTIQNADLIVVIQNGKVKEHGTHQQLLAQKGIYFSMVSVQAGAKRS

Q: How did the “substrate of P-gp (translocation basolateral to apical)” value (murine P-gp (Abcb1a)) turn out when `COC(=O)C[C@](O)(CCCC(C)(C)O)C(=O)O[C@@H]1C(OC)=C[C@]23CCCN2CCc2cc4c(cc2[C@H]13)OCO4` [OMA, Omacetaxine mepesuccinate] was run?
A: Its value is “weak substrate”.

Q: And the “substrate of BCRP (translocation between apical and basolateral compartments)” value (human BCRP (ABCG2))?
A: Its value is “not a substrate”.
